From US20230286973A1, “PROTEIN SECRETION INHIBITORS” (KEZAR LIFE SCIENCES, priority 2020, published 2023)

Columns and labels:
[1] = system: HER3-ss+4aa/Gaussia Luciferase; test: Dox-Induced Her3-ss-Gluc Assay; type: cell-based; settings: 24 hr Dox induction; 293FRT/TO cells; read-out: 24 hr Dox Inducible Her3(ss + 4)Gluc 293FRT/TO: Mean IC50
Procedure, shortened: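 Doxycycline-inducible HER3 signal sequence+4aa/Gaussia luciferase construct, stably integrated in Flp-In 293 T-REx cells; compound dilutions applied with doxycycline at 37° C., 5% CO2.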

[2] = system: multiple myeloma cell line U266B1; test: U266 Cell Viability Assay; type: cell-based, human; settings: Homo sapiens, U-266, 48 h, U266B1 cells, Celltiter-Glo
Procedure, shortened: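 After growth in serum-supplemented RPMI 1640, cells received serially diluted compound in DMSO/media and were kept 48 hours before a CellTiter-Glo luminescence readout.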

[3] = system: multiple myeloma cell line NCI-H929; test: H929 Cell Viability Assay; type: cell-based, human; settings: Homo sapiens, NCI-H929, 48 h, NCI-H929 cells, Celltiter-Glo
Procedure, shortened: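 A 48-hour compound treatment of cells in 10% FBS RPMI medium was followed by luciferase-based viability quantification.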

[4] = system: TNFα-FL/Gaussia Luciferase; test: Dox Induced TNFα-FL-Gluc Assay; type: cell-based; settings: for IC50: 24 hr Dox induction, 293FRT/TO cells, read-out: 24 hr Dox Inducible TNFaFLGluc 293FRT/TO: Mean IC50; for 24 hr Dox Inducible TNFaFLGluc 293FRT/TO: TNF/PD1: ratio of TNFaFLGluc IC50 to PD1ssGluc IC50
Procedure, shortened: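 Hygromycin/blasticidin-selected Flp-In 293 T-REx cells, TNFα-FL/Gaussia luciferase fusion under T-REx control; overnight plating, then compound in DMSO/media with doxycycline at 37 °C, 5% CO2; stereo-undefined structures tested as mixtures.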

[5] = system: PD1-ss+10aa/Gaussia Luciferase; test: Dox-Induced PD1-ss-Gluc Assay; type: cell-based; settings: 24 hr Dox induction; 293FRT/TO cells; read-out: 24 hr Dox Inducible PD1ssGluc 293FRT/TO: Mean IC50
Procedure, shortened: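 Flp-In 293 T-REx cells stably carrying a doxycycline-inducible Gaussia luciferase fused to the PD1 signal sequence plus 10 aa were plated the day before. Compound dilutions in DMSO/media containing doxycycline were then added and incubated at 37 °C, 5% CO2. Data for undefined stereochemistry refer to stereoisomer mixtures.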

[6] = Liver Microsome Stability Assay (rat); settings: rat liver microsomes, with NADPH, 1.0 uM compound
Experimental: (§1) Stability of a compound was assessed in the presence of liver microsomes from various sources—mouse, rat, monkey and human liver microsomes. 1.0 uM compound, 0.4% DMSO in 0.1 M Potassium Phosphate with 1.0 mg/mL liver microsomes, were incubated at 37° C. with or without 1 mM NADPH. The samples were quenched at 0, and 30 minutes.

[7] = Liver Microsome Stability Assay (human); settings: human liver microsomes, with NADPH, 1.0 uM compound
Experimental: as §1

[8] = system: IL-2-FL/Gaussia Luciferase; test: Dox Induced IL2-FL-Gluc Assay; type: cell-based; settings: for IC50: 24 hr Dox induction, 293FRT/TO cells, read-out: 24 hr Dox Inducible IL2FLGluc 293FRT/TO: Mean IC50; for 24 hr Dox Inducible IL2FLGluc 293FRT/TO: IL2/PD1: ratio of IL2FLGluc IC50 to PD1ssGluc IC50
Procedure, shortened: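 A hygromycin- and blasticidin-resistant 293 T-REx clone carrying inducible IL-2–Gaussia luciferase (full-length IL-2, residues 1-153) serves as the cell system. After overnight plating, the cells get test compounds together with doxycycline in DMSO/media and are incubated at 37° C, 5% CO2.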

[9] = Liver Microsome Stability Assay (monkey); settings: monkey liver microsomes, with NADPH, 1.0 uM compound
Experimental: as §1

[10] = Liver Microsome Stability Assay (mouse); settings: mouse liver microsomes, with NADPH, 1.0 uM compound
Experimental: as §1

| SMILES | IC50 [1] | EC50 [2] | EC50 [3] | IC50 [4] | IC50 [5] | Liver Microsome Stability (Multiple Species): Rat - % Remaining after 30 min w/NADPH [6] | Liver Microsome Stability (Multiple Species): Human - % Remaining after 30 min w/NADPH [7] | IC50 [8] | Liver Microsome Stability (Multiple Species): Monkey - % Remaining after 30 min w/NADPH [9] | Liver Microsome Stability (Multiple Species): Mouse - % Remaining after 30 min w/NADPH [10] | 24 hr Dox Inducible TNFaFLGluc 293FRT/TO: TNF/PD1 [4] | 24 hr Dox Inducible IL2FLGluc 293FRT/TO: IL2/PD1 [8] |
| --- | --- | --- | --- | --- | --- | --- | --- | --- | --- | --- | --- | --- |
| CC(C)c1ccc(/C=C/c2csc(NC(=O)c3cccn3Cc3cc(F)nc(F)c3)n2)nc1 [Compound B87, (E)-1-((2,6-difluoropyridin-4-yl)methyl)-N-(4-(2-(5-isopropylpyridin-2-yl)vinyl)thiazol-2-yl)-1H-pyrrole-2-carboxamide] | > 25 µM | 14.1 µM | 9.92 µM | > 25 µM | 0.132 µM | 0.18% | 0.15% | > 25 µM | 0.04% | 1.23% | >189 | >190 |
| Cc1cc(/C=C/c2csc(NC(=O)c3cccn3Cc3ccnc(F)c3)n2)no1 [Compound B88, (E)-1-((2-fluoropyridin-4-yl)methyl)-N-(4-(2-(5-methylisoxazol-3-yl)vinyl)thiazol-2-yl)-1H-pyrrole-2-carboxamide] | > 25 µM | > 25 µM | > 25 µM | > 25 µM | 0.625 µM | 2.29% | 15.6% | > 25 µM | 15.2% | 3.15% | >40.0 | >40 |
| CCc1cc(/C=C/c2csc(NC(=O)c3cccn3Cc3ccnc(F)c3)n2)no1 [Compound B89, (E)-N-(4-(2-(5-ethylisoxazol-3-yl)vinyl)thiazol-2-yl)-1-((2-fluoropyridin-4-yl)methyl)-1H-pyrrole-2-carboxamide] | 1.1 µM | > 25 µM | > 25 µM | > 25 µM | 0.271 µM | 1.11% | 0.4% | 1.65 µM | 0.17% | 2.24% | >92.2 | 6.1 |
| CC(C)c1cc(/C=C/c2csc(NC(=O)c3cccn3Cc3ccnc(F)c3)n2)no1 [Compound B90, (E)-1-((2-fluoropyridin-4-yl)methyl)-N-(4-(2-(5-isopropylisoxazol-3-yl)vinyl)thiazol-2-yl)-1H-pyrrole-2-carboxamide] | 0.69 µM | > 25 µM | 22.8 µM | > 25 µM | 0.167 µM | 5.78% | 0.87% | 1.17 µM | 0.54% | 10.8% | >150 | 7 |

Second part, led by results:

| IC50 [1] | EC50 [2] | EC50 [3] | IC50 [4] | IC50 [5] | Liver Microsome Stability (Multiple Species): Rat - % Remaining after 30 min w/NADPH [6] | Liver Microsome Stability (Multiple Species): Human - % Remaining after 30 min w/NADPH [7] | IC50 [8] | Liver Microsome Stability (Multiple Species): Monkey - % Remaining after 30 min w/NADPH [9] | Liver Microsome Stability (Multiple Species): Mouse - % Remaining after 30 min w/NADPH [10] | SMILES | 24 hr Dox Inducible TNFaFLGluc 293FRT/TO: TNF/PD1 [4] | 24 hr Dox Inducible IL2FLGluc 293FRT/TO: IL2/PD1 [8] |
| --- | --- | --- | --- | --- | --- | --- | --- | --- | --- | --- | --- | --- |
| > 25 µM | > 25 µM | > 25 µM | > 25 µM | 6.05 µM | 44.2% | 0.22% | > 25 µM | 0.24% | 33.9% | CC(=O)N1CCC(n2cnc(/C=C/c3csc(NC(=O)c4cccn4Cc4ccnc(F)c4)n3)c2)CC1 [Compound B91, (E)-N-(4-(2-(1-(1-acetylpiperidin-4-yl)-1H-imidazol-4-yl)vinyl)thiazol-2-yl)-1-((2-fluoropyridin-4-yl)methyl)-1H-pyrrole-2-carboxamide] | >4.13 | >4.1 |
| > 25 µM | > 25 µM | 22.8 µM | > 25 µM | 0.0724 µM | 2.02% | 0.19% | 12.1 µM | 0.04% | 6.38% | O=C(Nc1nc(/C=C/c2cn(C3CCOCC3)cn2)cs1)c1cccn1Cc1ccnc(F)c1 [Compound B92, (E)-1-((2-fluoropyridin-4-yl)methyl)-N-(4-(2-(1-(tetrahydro-2H-pyran-4-yl)-1H-imidazol-4-yl)vinyl)thiazol-2-yl)-1H-pyrrole-2-carboxamide] | >345 | 170 |
| 2.73 µM | > 25 µM | 20.9 µM | > 25 µM | 0.686 µM | 11.5% | 0.85% | 11 µM | 0.03% | 12.7% | CC(C)n1cc(/C=C/c2csc(NC(=O)c3cccn3Cc3ccnc(F)c3)n2)nc1C#N [Compound B93, (E)-N-(4-(2-(2-cyano-1-isopropyl-1H-imidazol-4-yl)vinyl)thiazol-2-yl)-1-((2-fluoropyridin-4-yl)methyl)-1H-pyrrole-2-carboxamide] | >36.4 | 16 |
| 0.877 µM | > 25 µM | > 25 µM | > 25 µM | 1.02 µM | 31.1% | 0.55% | > 25 µM | 0.06% | 20% | CC(C)c1cc(/C=C/c2csc(NC(=O)c3cccn3Cc3ccnc(F)c3)n2)n(C)n1 [Compound B94, (E)-1-((2-fluoropyridin-4-yl)methyl)-N-(4-(2-(3-isopropyl-1-methyl-1H-pyrazol-5-yl)vinyl)thiazol-2-yl)-1H-pyrrole-2-carboxamide] | >24.5 | >24 |
| > 25 µM | > 25 µM | > 25 µM | > 25 µM | 0.782 µM | 0.54% | 0.04% | > 25 µM | 0.03% | 0.08% | CC(C)n1ccnc1/C=C/c1csc(NC(=O)c2cccn2Cc2ccnc(F)c2)n1 [Compound B95, (E)-1-((2-fluoropyridin-4-yl)methyl)-N-(4-(2-(1-isopropyl-1H-imidazol-2-yl)vinyl)thiazol-2-yl)-1H-pyrrole-2-carboxamide] | >32.0 | >32 |
